Experimental data from patent publication US12708655B2, “Botanicals as WNT/beta-catenin activators, molecular pathway regulators, tissue regenerators and health biomarker regulators” (Arbor Life Holdings, Ltd., priority 2020, dated 2026).

Assays:
androgen receptor = biological target: T1, androgen receptor (Homo sapiens, UniProt P10275); details: human dermal papilla cells; cited from earlier work
T1 construct: nuclear translocation of the androgen receptor stimulated by DHT in human dermal papilla cells; host or cells: human dermal papilla cells
T1 sequence (P10275 1-920): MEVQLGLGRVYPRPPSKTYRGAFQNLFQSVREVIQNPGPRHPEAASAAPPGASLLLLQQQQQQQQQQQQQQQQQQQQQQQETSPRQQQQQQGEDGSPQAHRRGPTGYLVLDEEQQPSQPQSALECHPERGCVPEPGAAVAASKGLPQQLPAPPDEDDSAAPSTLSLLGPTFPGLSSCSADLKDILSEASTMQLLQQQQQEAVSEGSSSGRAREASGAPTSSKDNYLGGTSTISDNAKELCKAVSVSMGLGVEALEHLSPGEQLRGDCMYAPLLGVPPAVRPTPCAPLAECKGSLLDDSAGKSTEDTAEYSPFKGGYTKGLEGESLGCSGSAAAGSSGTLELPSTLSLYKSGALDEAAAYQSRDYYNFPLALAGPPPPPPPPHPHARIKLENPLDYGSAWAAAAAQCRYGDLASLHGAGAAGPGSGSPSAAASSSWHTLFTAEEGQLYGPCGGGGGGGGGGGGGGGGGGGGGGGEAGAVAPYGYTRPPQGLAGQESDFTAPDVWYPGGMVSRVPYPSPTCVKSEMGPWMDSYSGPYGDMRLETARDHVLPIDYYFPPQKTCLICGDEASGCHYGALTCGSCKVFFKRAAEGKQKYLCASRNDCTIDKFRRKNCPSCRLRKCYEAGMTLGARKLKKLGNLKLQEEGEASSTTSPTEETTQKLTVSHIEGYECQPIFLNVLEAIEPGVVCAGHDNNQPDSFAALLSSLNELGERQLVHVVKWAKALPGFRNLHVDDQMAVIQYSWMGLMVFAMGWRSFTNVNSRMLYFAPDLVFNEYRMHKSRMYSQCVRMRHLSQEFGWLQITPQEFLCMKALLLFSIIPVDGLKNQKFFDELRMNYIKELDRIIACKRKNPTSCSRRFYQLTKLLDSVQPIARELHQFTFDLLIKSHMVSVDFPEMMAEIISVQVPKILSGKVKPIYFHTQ

[1] = test system: human dermal papilla cells; details: in vitro; cited from earlier work
[2] = test system: LNCaP prostate cancer cells; details: cells stimulated by DHT; cited from earlier work
[3] = test system: androgenetic alopecia and telogen effluvium in Men; details: adjusted to 24 weeks, cited from earlier work
[4] = test system: androgentic alopecia and telogen effluvium in Women; details: adjusted to 24 weeks, from clinical trial or systematic review; cited from earlier work
[5] = test system: androgentic alopecia and telogen effluvium in Women; assay: Comparative analysis of clinical trial results in women versus standard of care, adjusted to 24 weeks; type: in vivo, human
[6] = test system: androgenetic alopecia and telogen effluvium in Men; assay: Comparative analysis of clinical trial results in men versus standard of care, adjusted to 24 weeks; type: in vivo, human

Compound | nuclear translocation of the androgen receptor stimulated by DHT (androgen receptor) | proliferation of human dermal papilla cells [1] | overgrowth of LNCaP prostate cancer cells [2] | Changes in Terminal Hairs per sq.cm vs placebo ([3]; from clinical trial or systematic review) [per sq.cm] | Changes in Terminal hair count per sq·cm versus placebo, comparators ([3]; systematic reviews of randomized controlled trials) [per sq·cm] | Changes in Terminal Hairs per sq.cm, difference between active and placebo groups [4] [per sq.cm] | Efficacy Factor Multiple vs 2% Minoxidil [5] | Efficacy Factor Multiple vs 2% Minoxidil [6]
O=C(O)[C@H]1O[C@@H](Oc2cc3oc(-c4ccccc4)cc(=O)c3c(O)c2O)[C@H](O)[C@@H](O)[C@@H]1O [baicalin] | inhibited | enhanced proliferation | dose-dependently inhibited |  |  |  |  | 
CC(C)(C)NC(=O)[C@H]1CC[C@H]2[C@@H]3CC[C@H]4NC(=O)C=C[C@]4(C)[C@H]3CC[C@]12C [finasteride 1 mg, finasteride] |  |  |  | 6.4 | 6.4 | −1.0 | −0.1 | 1.0
